# Assay results taken from patent US11534434B2 (Karuna Therapeutics, Inc., priority 2019, dated 2022).
# Assays:
# [1] = biological target: T1, human M2 mAChR (Homo sapiens, UniProt P08172); test: Whole-cell functional agonist activity, phospho-ERK (pERK), CHOK1-based human M2 mAChR stable cell line; conditions: for EC50: agonist, CHOK1 human M2 cells; for M2 Top (%): top of curve, % of min (DMSO) and max (10 mM Acetylcholine) responses
# T1 construct: expressed in transfected cells
# T1 sequence (P08172 1-466): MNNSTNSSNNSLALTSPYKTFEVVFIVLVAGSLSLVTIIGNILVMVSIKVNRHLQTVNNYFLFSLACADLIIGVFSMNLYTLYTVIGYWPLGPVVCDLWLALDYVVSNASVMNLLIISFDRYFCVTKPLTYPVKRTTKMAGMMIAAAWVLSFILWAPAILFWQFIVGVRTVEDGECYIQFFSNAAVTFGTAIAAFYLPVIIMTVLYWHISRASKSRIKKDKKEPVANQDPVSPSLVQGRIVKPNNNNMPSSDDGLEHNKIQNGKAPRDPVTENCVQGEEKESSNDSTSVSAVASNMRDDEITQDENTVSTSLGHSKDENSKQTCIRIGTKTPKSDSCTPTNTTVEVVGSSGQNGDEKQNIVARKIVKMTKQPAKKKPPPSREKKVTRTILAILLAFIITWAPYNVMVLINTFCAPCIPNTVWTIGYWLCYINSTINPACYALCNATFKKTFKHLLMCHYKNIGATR
# Protocol: (§1) Whole-cell functional agonist activity in cells expressing recombinant human muscarinic receptor subtypes.
# (§2) ThermoFisher's FLIPR™ (Fluorescence Imaging Plate Reader) was used to quantify Ca^2+ release, a functional effect associated with Gaq-coupled M1 and M5 mAChRs. CisBio's phospho-ERK (pERK) Thr202/Tyr204 was used to evaluate Gai/o-coupled M2 and M4 mAChRs responses.
# (§3) Percentage activity was calculated using the following formula: % Activity=100%×(mean RFU of test sample mean RFU of vehicle control)/(mean MAX RFU control ligand mean RFU of vehicle control) where RFU is relative fluorescence unit. The M2 and the M4 cells were thawed out one day before the assay and plated at 2,000 and 1,000 cells per well, respectively, in […] of DMEM/F12+10% FBS in ProxiPlate 384-well white-walled, white-bottom tissue culture-treated plates and incubated at 37° C. and 5% CO2 overnight. Before the assay, cells were serum-starved at 37° C. in 5% CO2 for 4 hours by replacing culture media with […] of F12 media with 8 mM HEPES. The pERK assay was run according to assay kit instructions with minor volume modifications outlined below.
# (§4) Compound addition was carried out by adding 3× compound solution in […] of media with 0.3% DMSO (made from a 10 mM compound stock solution in 100% DMSO) for 5 minutes before the reaction was terminated by adding […] lysis and blocking solution. Cells were left in the lysis solution for 30 minutes before […] of antibody (Eu and d2) solution was added for an additional 2-hour incubation while protected from light. The plates were then read on laser Pherastar using the TR-FRET protocol.
# [2] = biological target: T2, human M4 mAChR (Homo sapiens, UniProt P08173); test: Whole-cell functional agonist activity, phospho-ERK (pERK), CHOK1-based human M4 mAChR stable cell line; conditions: for EC50: agonist, CHOK1 human M4 cells; for M4 Top (%): top of curve, % of min (DMSO) and max (10 mM Acetylcholine) responses
# T2 construct: expressed in transfected cells
# T2 sequence (P08173 1-479): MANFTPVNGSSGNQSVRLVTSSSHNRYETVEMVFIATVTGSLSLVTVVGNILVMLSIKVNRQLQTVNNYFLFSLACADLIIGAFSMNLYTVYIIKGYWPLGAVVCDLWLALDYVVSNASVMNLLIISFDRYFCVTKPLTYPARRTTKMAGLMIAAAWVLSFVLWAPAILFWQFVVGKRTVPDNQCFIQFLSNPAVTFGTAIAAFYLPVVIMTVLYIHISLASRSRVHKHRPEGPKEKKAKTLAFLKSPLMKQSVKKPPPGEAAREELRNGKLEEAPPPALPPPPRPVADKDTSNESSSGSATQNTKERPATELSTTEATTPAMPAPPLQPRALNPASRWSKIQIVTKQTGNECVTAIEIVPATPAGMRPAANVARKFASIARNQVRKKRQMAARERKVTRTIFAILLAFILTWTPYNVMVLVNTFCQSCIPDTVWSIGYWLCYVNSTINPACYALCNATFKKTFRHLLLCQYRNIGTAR
# Protocol: as §1, §2, §3, §4
# [3] = Storage stability of the tartrate salt (reanalysis by LC-MS, 1H NMR, 19F NMR); type: physicochemical; conditions: six months of storage at 0° C.; LC-MS, 1H NMR, 19F NMR
# Protocol: The tartrate salt of the title compound was unstable at test storage conditions. Although the initial NMR spectra were clean, the LCMS purity was about 75%. After storage at 0° C. for six months, the sample was reanalyzed by ^1H-NMR, ^19F-NMR, and LC-MS.
Compound,EC50 [1] [µM],M2 Top (%) [1] [%],EC50 [2] [µM],M4 Top (%) [2] [%],storage stability of tartrate salt [3]
"CN1CCC=C(c2nsnc2OCCCCCC(F)(F)F)C1 [Example 1, 3-(1-Methyl-1,2,5,6-tetrahydropyridin-3-yl)-4-((6,6,6-trifluorohexyl)oxy)-1,2,5-thiadiazole]",> 0.034,1,0.0157,82,no meaningful changes were observed
"CN1CCC=C(c2nsnc2OCCCCC(C)(F)F)C1 [Example 8, 3-((5,5-Difluorohexyl)oxy)-4-(1-methyl-1,2,5,6-tetrahydropyridin-3-yl)-1,2,5-thiadiazole]",> 0.034,0,0.0126,48,–
"CN1CCC=C(c2nsnc2OCCCCCC(F)F)C1 [Example 6, 3-((6,6-difluorohexyl)oxy)-4-(1-methyl-1,2,5,6-tetrahydropyridin-3-yl)-1,2,5-thiadiazole]",> 0.034,2,0.011,108,–
"CN1CCC=C(c2nsnc2OCCCCCCF)C1 [Example 7, 3-((6-Fluorohexyl)oxy)-4-(1-methyl-1,2,5,6-tetrahydropyridin-3-yl)-1,2,5-thiadiazole]",> 0.034,3,0.0083,112,–

# Further lines, results first:
EC50 [1] [µM],M2 Top (%) [1] [%],EC50 [2] [µM],M4 Top (%) [2] [%],storage stability of tartrate salt [3],Compound
> 0.034,1,> 0.034,5,–,"CCC(F)(F)CCCOc1nsnc1C1=CCCN(C)C1 [Example 9, 3-((4,4-Difluorohexyl)oxy)-4-(1-methyl-1,2,5,6-tetrahydropyridin-3-yl)-1,2,5-thiadiazole]"
> 0.034,0,0.374,62,–,"CCCCC(F)(F)COc1nsnc1C1=CCCN(C)C1 [Example 11, 3-((2,2-Difluorohexyl)oxy)-4-(1-methyl-1,2,5,6-tetrahydropyridin-3-yl)-1,2,5-thiadiazole]"
